Measurements: ChEMBL document CHEMBL3044875, “Synthesis and antimicrobial activity of some bisoctahydroxanthene-1,8-dione derivatives” (2011)
The source made the active and inactive calls. The calls are words filed in the database; no cut-off is given here.

Experiments:
Candida albicans [1] = assay: Antifungal activity against Candida albicans ATCC 10231 at 40 ug/disk after 48 hr by disk-diffusion method; type: functional; conditions: ATCC 10231, 48 h, read-out: DIZ
Staphylococcus aureus [2] = assay: Antibacterial activity against Staphylococcus aureus ATCC 25923 at 20 ug/disc after 24 hr by disk diffusion method; type: functional
Aspergillus niger [3] = assay: Antifungal activity against Aspergillus niger ATCC 10949 at 20 ug/disk after 72 hr by disk diffusion method; type: functional, organism-based
Escherichia coli [4] = assay: Antibacterial activity against Escherichia coli ATCC 25922 at 40 ug/disk after 24 hr by disk-diffusion method; type: functional
Nocardia [5] = assay: Antibacterial activity against Nocardia canis at 20 ug/disk after 24 hr by disk diffusion method; type: functional, organism-based
Staphylococcus aureus [6] = assay: Antibacterial activity against Staphylococcus aureus ATCC 25923 at 140 ug/disc after 24 hr by disk diffusion method; type: functional
Bacillus cereus [7] = assay: Antibacterial activity against Bacillus cereus NRRL 3711 at 40 ug/disk after 24 hr by disk diffusion method; type: functional; conditions: for zone of inhibition at 40 µg/disc: NRRL 3711, 24 h, read-out: DIZ
Candida albicans [8] = assay: Antifungal activity against Candida albicans ATCC 10231 at 140 ug/disk after 48 hr by disk-diffusion method; type: functional; conditions: ATCC 10231, 48 h, read-out: DIZ
Escherichia coli [9] = assay: Antibacterial activity against Escherichia coli ATCC 25922 at 140 ug/disk after 24 hr by disk-diffusion method; type: functional
Pseudomonas aeruginosa [10] = assay: Antibacterial activity against Pseudomonas aeruginosa ATCC 27853 at 20 ug/disk after 24 hr by disk-diffusion method; type: functional, organism-based
Rhodotorula mucilaginosa [11] = assay: Antifungal activity against Rhodotorula mucilaginosa at 20 ug/disk after 48 hr by disk diffusion method; type: functional
Proteus vulgaris [12] = assay: Antibacterial activity against Proteus vulgaris NRRL-B-123 at 40 ug/disk after 24 hr by disk diffusion method; type: functional, organism-based
Bacillus cereus [13] = assay: Antibacterial activity against Bacillus cereus NRRL 3711 at 20 ug/disk after 24 hr by disk diffusion method; type: functional; conditions: for zone of inhibition at 20 µg/disc: NRRL 3711, 24 h, read-out: DIZ
Proteus vulgaris [14] = assay: Antibacterial activity against Proteus vulgaris NRRL-B-123 at 140 ug/disk after 24 hr by disk diffusion method; type: functional, organism-based
Staphylococcus aureus [15] = assay: Antibacterial activity against Staphylococcus aureus ATCC 25923 at 40 ug/disc after 24 hr by disk diffusion method; type: functional
Proteus vulgaris [16] = assay: Antibacterial activity against Proteus vulgaris NRRL-B-123 at 20 ug/disk after 24 hr by disk diffusion method; type: functional, organism-based
Aspergillus niger [17] = assay: Antifungal activity against Aspergillus niger ATCC 10949 at 140 ug/disk after 72 hr by disk diffusion method; type: functional; conditions: for zone of inhibition at 140 µg/disc: ATCC 10949, 72 h, read-out: DIZ
Escherichia coli [18] = assay: Antibacterial activity against Escherichia coli ATCC 25922 at 20 ug/disk after 24 hr by disk-diffusion method; type: functional
[19] = tested on: Staphylococcus epidermidis; assay: Antibacterial activity against Staphylococcus epidermidis ATCC 12228 at 140 ug/disk after 24 hr by disk diffusion method; type: functional
[20] = tested on: Staphylococcus epidermidis; assay: Antibacterial activity against Staphylococcus epidermidis ATCC 12228 at 20 ug/disk after 24 hr by disk diffusion method; type: functional, organism-based
Nocardia [21] = assay: Antibacterial activity against Nocardia canis at 140 ug/disk after 24 hr by disk diffusion method; type: functional
Rhodotorula mucilaginosa [22] = assay: Antifungal activity against Rhodotorula mucilaginosa at 40 ug/disk after 48 hr by disk diffusion method; type: functional
Nocardia [23] = assay: Antibacterial activity against Nocardia canis at 40 ug/disk after 24 hr by disk diffusion method; type: functional
Rhodotorula mucilaginosa [24] = assay: Antifungal activity against Rhodotorula mucilaginosa at 140 ug/disk after 48 hr by disk diffusion method; type: functional; conditions: for zone of inhibition at 140 µg/disc: read-out: DIZ
Pseudomonas aeruginosa [25] = assay: Antibacterial activity against Pseudomonas aeruginosa ATCC 27853 at 40 ug/disk after 24 hr by disk-diffusion method; type: functional, organism-based
Candida albicans [26] = assay: Antifungal activity against Candida albicans ATCC 10231 at 20 ug/disk after 48 hr by disk-diffusion method; type: functional; conditions: for zone of inhibition at 20 µg/disc: ATCC 10231, 48 h, read-out: DIZ
Pseudomonas aeruginosa [27] = assay: Antibacterial activity against Pseudomonas aeruginosa ATCC 27853 at 140 ug/disk after 24 hr by disk-diffusion method; type: functional, organism-based
Bacillus cereus [28] = assay: Antibacterial activity against Bacillus cereus NRRL 3711 at 140 ug/disk after 24 hr by disk diffusion method; type: functional; conditions: for zone of inhibition at 140 µg/disc: NRRL 3711, 24 h, read-out: DIZ
Aspergillus niger [29] = assay: Antifungal activity against Aspergillus niger ATCC 10949 at 40 ug/disk after 72 hr by disk diffusion method; type: functional, organism-based
[30] = tested on: Staphylococcus epidermidis; assay: Antibacterial activity against Staphylococcus epidermidis ATCC 12228 at 40 ug/disk after 24 hr by disk diffusion method; type: functional
[31] = ATCC 25922, 24 h, read-out: DIZ

O=C1CCCC2=C1C(c1cccc(C3C4=C(CCCC4=O)OC4=C3C(=O)CCC4)c1)C1=C(CCCC1=O)O2
zone of inhibition at 40 µg/disc (Candida albicans [1]): 7 mm | diameter of the inhibition zone (DIZ) (Staphylococcus aureus [2]): inactive | diameter of the inhibition zone (DIZ) (Aspergillus niger [3]): inactive | diameter of the inhibition zone (DIZ) (Escherichia coli [4]): inactive | diameter of the inhibition zone (DIZ) (Nocardia [5]): inactive | diameter of the inhibition zone (DIZ) (Staphylococcus aureus [6]): inactive | zone of inhibition at 40 µg/disc (Bacillus cereus [7]): 10 mm | zone of inhibition at 140 µg/disc (Candida albicans [8]): 7 mm | diameter of the inhibition zone (DIZ) (Escherichia coli [9]): inactive | diameter of the inhibition zone (DIZ) (Pseudomonas aeruginosa [10]): inactive | diameter of the inhibition zone (DIZ) (Rhodotorula mucilaginosa [11]): inactive | diameter of the inhibition zone (DIZ) (Proteus vulgaris [12]): inactive | zone of inhibition at 20 µg/disc (Bacillus cereus [13]): 8 mm | diameter of the inhibition zone (DIZ) (Proteus vulgaris [14]): inactive | diameter of the inhibition zone (DIZ) (Staphylococcus aureus [15]): inactive | diameter of the inhibition zone (DIZ) (Proteus vulgaris [16]): inactive | zone of inhibition at 140 µg/disc (Aspergillus niger [17]): 7 mm | diameter of the inhibition zone (DIZ) (Escherichia coli [18]): inactive | diameter of the inhibition zone (DIZ) [19]: inactive | diameter of the inhibition zone (DIZ) [20]: inactive | diameter of the inhibition zone (DIZ) (Nocardia [21]): inactive | zone of inhibition at 40 µg/disc (Rhodotorula mucilaginosa [22]; read-out: DIZ): 7 mm | diameter of the inhibition zone (DIZ) (Nocardia [23]): inactive | zone of inhibition at 140 µg/disc (Rhodotorula mucilaginosa [24]): 9 mm | diameter of the inhibition zone (DIZ) (Pseudomonas aeruginosa [25]): inactive | diameter of the inhibition zone (DIZ) (Candida albicans [26]): inactive | diameter of the inhibition zone (DIZ) (Pseudomonas aeruginosa [27]): inactive | zone of inhibition at 140 µg/disc (Bacillus cereus [28]): 8 mm | diameter of the inhibition zone (DIZ) (Aspergillus niger [29]): inactive | diameter of the inhibition zone (DIZ) [30]: inactive

O=C1CC(c2ccccc2)CC2=C1C(c1ccc(C3C4=C(CC(c5ccccc5)CC4=O)OC4=C3C(=O)CC(c3ccccc3)C4)cc1)C1=C(CC(c3ccccc3)CC1=O)O2 (stereo not given)
zone of inhibition at 40 µg/disc (Candida albicans [1]): 8 mm | diameter of the inhibition zone (DIZ) (Staphylococcus aureus [2]): inactive | diameter of the inhibition zone (DIZ) (Aspergillus niger [3]): inactive | diameter of the inhibition zone (DIZ) (Escherichia coli [4]): inactive | diameter of the inhibition zone (DIZ) (Nocardia [5]): inactive | diameter of the inhibition zone (DIZ) (Staphylococcus aureus [6]): inactive | zone of inhibition at 40 µg/disc (Bacillus cereus [7]): 10 mm | zone of inhibition at 140 µg/disc (Candida albicans [8]): 8 mm | diameter of the inhibition zone (DIZ) (Escherichia coli [9]): inactive | diameter of the inhibition zone (DIZ) (Pseudomonas aeruginosa [10]): inactive | diameter of the inhibition zone (DIZ) (Rhodotorula mucilaginosa [11]): inactive | diameter of the inhibition zone (DIZ) (Proteus vulgaris [12]): inactive | zone of inhibition at 20 µg/disc (Bacillus cereus [13]): 8 mm | diameter of the inhibition zone (DIZ) (Proteus vulgaris [14]): inactive | diameter of the inhibition zone (DIZ) (Staphylococcus aureus [15]): inactive | diameter of the inhibition zone (DIZ) (Proteus vulgaris [16]): inactive | diameter of the inhibition zone (DIZ) (Aspergillus niger [17]): inactive | diameter of the inhibition zone (DIZ) (Escherichia coli [18]): inactive | diameter of the inhibition zone (DIZ) [19]: inactive | diameter of the inhibition zone (DIZ) [20]: inactive | diameter of the inhibition zone (DIZ) (Nocardia [21]): inactive | diameter of the inhibition zone (DIZ) (Rhodotorula mucilaginosa [22]): inactive | diameter of the inhibition zone (DIZ) (Nocardia [23]): inactive | zone of inhibition at 140 µg/disc (Rhodotorula mucilaginosa [24]): 7 mm | diameter of the inhibition zone (DIZ) (Pseudomonas aeruginosa [25]): inactive | zone of inhibition at 20 µg/disc (Candida albicans [26]): 7 mm | diameter of the inhibition zone (DIZ) (Pseudomonas aeruginosa [27]): inactive | zone of inhibition at 140 µg/disc (Bacillus cereus [28]): 10 mm | diameter of the inhibition zone (DIZ) (Aspergillus niger [29]): inactive | diameter of the inhibition zone (DIZ) [30]: inactive

CC1(C)CC(=O)C2=C(C1)OC1=C(C(=O)CC(C)(C)C1)C2c1cccc(C2C3=C(CC(C)(C)CC3=O)OC3=C2C(=O)CC(C)(C)C3)c1
zone of inhibition at 40 µg/disc (Candida albicans [1]): 7 mm | diameter of the inhibition zone (DIZ) (Staphylococcus aureus [2]): inactive | diameter of the inhibition zone (DIZ) (Aspergillus niger [3]): inactive | zone of inhibition at 40 µg/disc (Escherichia coli [4]; [31]): 7 mm | diameter of the inhibition zone (DIZ) (Nocardia [5]): inactive | diameter of the inhibition zone (DIZ) (Staphylococcus aureus [6]): inactive | diameter of the inhibition zone (DIZ) (Bacillus cereus [7]): inactive | zone of inhibition at 140 µg/disc (Candida albicans [8]): 7 mm | zone of inhibition at 140 µg/disc (Escherichia coli [9]; [31]): 8 mm | diameter of the inhibition zone (DIZ) (Pseudomonas aeruginosa [10]): inactive | diameter of the inhibition zone (DIZ) (Rhodotorula mucilaginosa [11]): inactive | diameter of the inhibition zone (DIZ) (Proteus vulgaris [12]): inactive | diameter of the inhibition zone (DIZ) (Bacillus cereus [13]): inactive | diameter of the inhibition zone (DIZ) (Proteus vulgaris [14]): inactive | diameter of the inhibition zone (DIZ) (Staphylococcus aureus [15]): inactive | diameter of the inhibition zone (DIZ) (Proteus vulgaris [16]): inactive | diameter of the inhibition zone (DIZ) (Aspergillus niger [17]): inactive | diameter of the inhibition zone (DIZ) (Escherichia coli [18]): inactive | diameter of the inhibition zone (DIZ) [19]: inactive | diameter of the inhibition zone (DIZ) [20]: inactive | diameter of the inhibition zone (DIZ) (Nocardia [21]): inactive | diameter of the inhibition zone (DIZ) (Rhodotorula mucilaginosa [22]): inactive | diameter of the inhibition zone (DIZ) (Nocardia [23]): inactive | zone of inhibition at 140 µg/disc (Rhodotorula mucilaginosa [24]): 7 mm | diameter of the inhibition zone (DIZ) (Pseudomonas aeruginosa [25]): inactive | diameter of the inhibition zone (DIZ) (Candida albicans [26]): inactive | diameter of the inhibition zone (DIZ) (Pseudomonas aeruginosa [27]): inactive | zone of inhibition at 140 µg/disc (Bacillus cereus [28]): 7 mm | diameter of the inhibition zone (DIZ) (Aspergillus niger [29]): inactive | diameter of the inhibition zone (DIZ) [30]: inactive

COc1ccc(C2CC(=O)C3=C(C2)OC2=C(C(=O)CC(c4ccc(OC)c(OC)c4)C2)C3c2cccc(C3C4=C(CC(c5ccc(OC)c(OC)c5)CC4=O)OC4=C3C(=O)CC(c3ccc(OC)c(OC)c3)C4)c2)cc1OC (stereo not given)
zone of inhibition at 40 µg/disc (Candida albicans [1]): 7 mm | diameter of the inhibition zone (DIZ) (Staphylococcus aureus [2]): inactive | diameter of the inhibition zone (DIZ) (Aspergillus niger [3]): inactive | diameter of the inhibition zone (DIZ) (Escherichia coli [4]): inactive | diameter of the inhibition zone (DIZ) (Nocardia [5]): inactive | diameter of the inhibition zone (DIZ) (Staphylococcus aureus [6]): inactive | diameter of the inhibition zone (DIZ) (Bacillus cereus [7]): inactive | zone of inhibition at 140 µg/disc (Candida albicans [8]): 7 mm | diameter of the inhibition zone (DIZ) (Escherichia coli [9]): inactive | diameter of the inhibition zone (DIZ) (Pseudomonas aeruginosa [10]): inactive | diameter of the inhibition zone (DIZ) (Rhodotorula mucilaginosa [11]): inactive | diameter of the inhibition zone (DIZ) (Proteus vulgaris [12]): inactive | diameter of the inhibition zone (DIZ) (Bacillus cereus [13]): inactive | diameter of the inhibition zone (DIZ) (Proteus vulgaris [14]): inactive | diameter of the inhibition zone (DIZ) (Staphylococcus aureus [15]): inactive | diameter of the inhibition zone (DIZ) (Proteus vulgaris [16]): inactive | zone of inhibition at 140 µg/disc (Aspergillus niger [17]): 7 mm | diameter of the inhibition zone (DIZ) (Escherichia coli [18]): inactive | diameter of the inhibition zone (DIZ) [19]: inactive | diameter of the inhibition zone (DIZ) [20]: inactive | diameter of the inhibition zone (DIZ) (Nocardia [21]): inactive | diameter of the inhibition zone (DIZ) (Rhodotorula mucilaginosa [22]): inactive | diameter of the inhibition zone (DIZ) (Nocardia [23]): inactive | diameter of the inhibition zone (DIZ) (Rhodotorula mucilaginosa [24]): inactive | diameter of the inhibition zone (DIZ) (Pseudomonas aeruginosa [25]): inactive | zone of inhibition at 20 µg/disc (Candida albicans [26]): 7 mm | diameter of the inhibition zone (DIZ) (Pseudomonas aeruginosa [27]): inactive | diameter of the inhibition zone (DIZ) (Bacillus cereus [28]): inactive | diameter of the inhibition zone (DIZ) (Aspergillus niger [29]): inactive | diameter of the inhibition zone (DIZ) [30]: inactive
